The test system of this test is BDF1 mice, P388 leukemia ip, median survival T/C. Briefly: NCI In Vivo Anticancer Drug Screen. Data for tumor model P388 Leukemia (intraperitoneal) in B6D2F1 (BDF1) mice. The settings on record: endpoint: median survival time, higher = longer survival. An outline of the steps: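 Antitumour effect was judged in vivo: survival in drug-treated mice, normalised to that of vehicle-dosed controls, gives the reported T/C.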

[1] abbreviates: dose: 100.0 mg/kg/injection, schedule: Q01DX009 (ip), vehicle: saline with Tween-80.
[2] abbreviates: dose: 100.0 mg/kg/injection, schedule: Q04DX003 (ip), vehicle: saline with Tween-80.
[3] abbreviates: dose: 200.0 mg/kg/injection, schedule: Q01DX009 (ip), vehicle: saline with Tween-80.
[4] abbreviates: dose: 200.0 mg/kg/injection, schedule: Q04DX003 (ip), vehicle: saline with Tween-80.
[5] abbreviates: dose: 400.0 mg/kg/injection, schedule: Q01DX009 (ip), vehicle: saline with Tween-80.
Setting [6] is: dose: 400.0 mg/kg/injection, schedule: Q04DX003 (ip), vehicle: saline with Tween-80.
[7] abbreviates: dose: 50.0 mg/kg/injection, schedule: Q01DX009 (ip), vehicle: saline with Tween-80.
Where [8] appears, read: dose: 100.0 mg/kg/injection, schedule: Q01DX009 (ip), vehicle: Klucel (hydroxypropylcellulose) (HPC).

Several values for one entry are separate records, joined by “and”; a condition that tells them apart may be missing. Identical values can stand only once. Toxic doses and inconclusive results are not listed. Starred links: 1 amine or outer side, 2 acyl side, 3 side chain; linkers in the order of their positions; H or OH if unused. Positions of bridges follow the written chain, without caps; N, C: chain ends. Non-standard residues stand in square brackets, D forms with d. Residues, ends and D or L forms follow the SMILES beside them. Chains are numbered I, II in the order given. ξ: configuration not given here. Actinocin(9to1) = Cc1c2oc3c(C)ccc(C(=O)[*:1])c3nc-2c(C(=O)[*:2])c(N)c1=O; ξPro(4ξ-Me) = CC1CNC(C(=O)O)C1; NMeV = CN[CH](C(=O)O)C(C)C; Sar = CNCC(=O)O

On to `COc1ccc(Nc2ccnc3cc(Cl)ccc23)cc1CN(CCCl)CCCl`, for which the T/C runs as follows: (dose: 0.11 mg/kg/injection, schedule: Q01DX009 (ip), vehicle: saline) 100 % of control; (dose: 0.13 mg/kg/injection, schedule: Q01DX009 (ip), vehicle: saline) 89 % of control; (dose: 0.2 mg/kg/injection, schedule: Q01DX009 (ip), vehicle: saline) 180 % of control; (dose: 0.22 mg/kg/injection, schedule: Q01DX009 (ip), vehicle: saline) 117 % of control; (dose: 0.22 mg/kg/injection, schedule: Q04DX003 (ip), vehicle: saline) 113 % of control; (dose: 0.33 mg/kg/injection, schedule: Q04DX003 (ip), vehicle: saline) 104 % of control. The T/C by setting is: (dose: 0.44 mg/kg/injection, schedule: Q01DX009 (ip), vehicle: saline) 166 % of control; (dose: 0.5 mg/kg/injection, schedule: Q04DX003 (ip), vehicle: saline) 122 % of control; (dose: 0.66 mg/kg/injection, schedule: Q01DX009 (ip), vehicle: saline) 163 % of control; (dose: 1.0 mg/kg/injection, schedule: Q01DX009 (ip), vehicle: saline) 163 % of control; (dose: 1.25 mg/kg/injection, schedule: Q01DX009 (ip), vehicle: Klucel (hydroxypropylcellulose) (HPC)) 155 % of control; (dose: 1.5 mg/kg/injection, schedule: Q01DX009 (ip), vehicle: saline) 176 % of control. For the same molecule, the T/C was 155 % of control (dose: 2.5 mg/kg/injection, schedule: Q01DX009 (ip), vehicle: Klucel (hydroxypropylcellulose) (HPC)); 154 % of control (dose: 3.13 mg/kg/injection, schedule: Q04DX003 (ip), vehicle: saline); 86 % of control (dose: 4.0 mg/kg/injection, schedule: Q01DX009 (ip), vehicle: saline); 88 % of control (dose: 25.0 mg/kg/injection, schedule: Q04DX003 (ip), vehicle: saline sonified).

Regarding `CCCC(F)C(=O)OCC` (configuration not stated), the T/C under setting [1] is 90 % of control; the T/C under setting [2] is 100 % of control; the T/C under setting [3] is 104 % of control; the T/C under setting [4] is 109 % of control; the T/C under setting [5] was 118 % of control; the T/C under setting [6] was 100 % of control.

`COc1cc2cc[n+]3c(C)c4cc5c(cc4cc3c2cc1OC)OCO5` (tested in a mixture with another compound): the T/C was 158 % of control (dose: 2.2 mg/kg/injection, schedule: Q01DX009 (ip), vehicle: saline); 163 % of control (dose: 3.3 mg/kg/injection, schedule: Q01DX009 (ip), vehicle: saline); 174 % of control (dose: 5.0 mg/kg/injection, schedule: Q01DX009 (ip), vehicle: saline); 186 % of control (dose: 7.5 mg/kg/injection, schedule: Q01DX009 (ip), vehicle: saline); 230 % of control (dose: 12.5 mg/kg/injection, schedule: Q01DX009 (ip), vehicle: saline); 123 % of control (dose: 25.0 mg/kg/injection, schedule: Q01DX009 (ip), vehicle: saline). Moreover, the T/C (dose: 50.0 mg/kg/injection, schedule: Q01DX009 (ip), vehicle: saline) was 102 % of control.

On to `CCO/C=C1\SC(=S)N(c2cccc(OC)c2)C1=O`, for which the T/C under setting [2] was 122 % of control.

As to `COc1cc(/C=C2\C(=O)NC(=O)N(c3ccccc3)C2=O)cc(OC)c1OC`, the T/C by setting is: (dose: 25.0 mg/kg/injection, schedule: Q01DX009 (ip), vehicle: saline with Tween-80) 109 % of control; under setting [7], 118 % of control; (dose: 50.0 mg/kg/injection, schedule: Q04DX003 (ip), vehicle: saline with Tween-80) 100 % of control; under setting [1], 118 % of control; under setting [2], 108 % of control; under setting [4], 112 % of control.

`O=C(O)CC(NC(=O)OCc1ccccc1)C(=O)OCc1ccccc1` (configuration not stated): the T/C is 92 % of control under setting [7]; 111 % of control under setting [1]; 104 % of control under setting [2]; 111 % of control under setting [3]; 113 % of control under setting [4]; 100 % of control under setting [5]. Further, under setting [6], the T/C was 90 % of control.

Turning to `Clc1ccc(N=Cc2ccccc2)cc1`, the T/C by setting is: under setting [8], 90 % of control; (dose: 100.0 mg/kg/injection, schedule: Q04DX003 (ip), vehicle: Klucel (hydroxypropylcellulose) (HPC)) 108 % of control; (dose: 200.0 mg/kg/injection, schedule: Q01DX009 (ip), vehicle: Klucel (hydroxypropylcellulose) (HPC)) 90 % of control; (dose: 200.0 mg/kg/injection, schedule: Q04DX003 (ip), vehicle: Klucel (hydroxypropylcellulose) (HPC)) 95 % of control; (dose: 400.0 mg/kg/injection, schedule: Q04DX003 (ip), vehicle: Klucel (hydroxypropylcellulose) (HPC)) 100 % of control.

Regarding `C[C@]12C[C@@H](F)C(=O)C[C@@H]1CC[C@@H]1[C@@H]2CC[C@]2(C)[C@@H](O)CC[C@@H]12`, the T/C is, setting by setting: under setting [1], 95 % of control; under setting [2], 110 % of control; under setting [3], 95 % of control; under setting [4], 100 % of control; under setting [5], 100 % of control; under setting [6], 105 % of control.

For `Cc1c2oc3c(C)ccc(C(=O)NC4C(=O)NC(C(C)C)C(=O)N5CC(C)CC5C(=O)N(C)CC(=O)N(C)C(C(C)C)C(=O)OC4C)c3nc-2c(C(=O)NC2C(=O)NC(C(C)C)C(=O)N3CC(C)CC3C(=O)N(C)CC(=O)N(C)C(C(C)C)C(=O)OC2C)c(N)c1=O` (configuration not stated) (I: TV[ξPro(4ξ-Me)][Sar][NMeV] / II: TV[ξPro(4ξ-Me)][Sar][NMeV]; ester I:1-I:C, II:1-II:C; linker I:N-II:N via Actinocin(9to1); configuration not given here), the T/C by setting is: (dose: 1.3 mg/kg/injection, schedule: Q01DX009 (ip), vehicle: saline + alcohol) 204 % of control; (dose: 2.16 mg/kg/injection, schedule: Q01DX009 (ip), vehicle: saline + alcohol) 228 % of control; (dose: 3.24 mg/kg/injection, schedule: Q04DX003 (ip), vehicle: saline + alcohol) 190 % of control and 161 % of control and 193 % of control; (dose: 3.6 mg/kg/injection, schedule: Q01DX009 (ip), vehicle: saline + alcohol) 314 % of control; (dose: 5.4 mg/kg/injection, schedule: Q04DX003 (ip), vehicle: saline + alcohol) 160 % of control and 219 % of control; (dose: 9.0 mg/kg/injection, schedule: Q04DX003 (ip), vehicle: saline + alcohol) 160 % of control and 209 % of control and 99 % of control. The T/C reads like this: (dose: 15.0 mg/kg/injection, schedule: Q04DX003 (ip), vehicle: saline + alcohol) 104 % of control and 207 % of control; (dose: 288.0 micrograms/kg/injection, schedule: Q01DX009 (ip), vehicle: saline + alcohol) 169 % of control; (dose: 480.0 micrograms/kg/injection, schedule: Q01DX009 (ip), vehicle: saline + alcohol) 176 % of control; (dose: 800.0 micrograms/kg/injection, schedule: Q01DX009 (ip), vehicle: saline + alcohol) 194 % of control; (dose: 864.0 micrograms/kg/injection, schedule: Q04DX003 (ip), vehicle: saline + alcohol) 101 % of control; (dose: 2400.0 micrograms/kg/injection, schedule: Q04DX003 (ip), vehicle: saline + alcohol) 167 % of control. The T/C (dose: 4000.0 micrograms/kg/injection, schedule: Q04DX003 (ip), vehicle: saline + alcohol) is 151 % of control and 194 % of control.

On to `COc1ccc(N=C(c2ccccc2)c2ccccc2)cc1`, for which the T/C was 91 % of control under setting [1]; 92 % of control under setting [2]; 108 % of control under setting [3]; 100 % of control under setting [4]; 108 % of control under setting [5]; 96 % of control under setting [6].

With `N/N=C(/C=C/C(=O)O)c1ccccc1`, the T/C is, setting by setting: (dose: 100.0 mg/kg/injection, schedule: Q01DX001 (ip), vehicle: saline sonified) 100 % of control; (dose: 200.0 mg/kg/injection, schedule: Q01DX001 (ip), vehicle: saline sonified) 109 % of control; (dose: 400.0 mg/kg/injection, schedule: Q01DX001 (ip), vehicle: saline sonified) 100 % of control.

Regarding `COc1ccc(C(=O)/C=C/c2ccccc2)c(O)c1CC=C(C)C` (tested in a mixture with another compound), the T/C is, setting by setting: (dose: 3.12 mg/kg/injection, schedule: Q01DX009 (ip), vehicle: Klucel (hydroxypropylcellulose) (HPC)) 90 % of control; (dose: 6.25 mg/kg/injection, schedule: Q01DX009 (ip), vehicle: Klucel (hydroxypropylcellulose) (HPC)) 102 % of control; (dose: 12.5 mg/kg/injection, schedule: Q01DX009 (ip), vehicle: Klucel (hydroxypropylcellulose) (HPC)) 107 % of control; (dose: 25.0 mg/kg/injection, schedule: Q01DX009 (ip), vehicle: Klucel (hydroxypropylcellulose) (HPC)) 109 % of control; (dose: 50.0 mg/kg/injection, schedule: Q01DX009 (ip), vehicle: Klucel (hydroxypropylcellulose) (HPC)) 91 % of control; under setting [8], 92 % of control.

Source of the values: PubChem BioAssay AID328 (DTP/NCI, 2004).
